This test relates to A. baumannii AB5075. Description: Resistance studies (agar plates and 21-day serial passaging). In kind it is cell-based, Acinetobacter baumannii. Conditions: for MIC: Acinetobacter baumannii. As for the experimental part:
To test for spontaneous development of resistance to PGG, A. baumannii AB5075 was inoculated on agar plates containing PGG at 0.5×MIC, 1×MIC, and 2×MIC (128, 256, and 512 μg/mL, respectively), and a control plate containing no PGG. […] Next, evolution of resistance was tested by serial passaging A. baumannii AB5075 for 21 days in the presence of a PGG gradient, using culture from the 0.5×MIC treatment for each subsequent passage. Serial passaging with a tetracycline gradient served as a control.

Converted amounts (≈) assume the structure as drawn. Read-outs that look alike come from different tables or passages of the source.

What is called MIC is the smallest concentration in the dilution series that meets the test's criterion for growth inhibition.

In the case of `CN(C)[C@@H]1C(O)=C(C(N)=O)C(=O)[C@@]2(O)C(O)=C3C(=O)c4c(O)cccc4[C@@](C)(O)[C@H]3C[C@@H]12` [tetracycline, reference compound], the “fold increase in MIC” value (A. baumannii, after 10 passages) was found to be 16 fold. Also, the MIC came out at 4 µg/mL (≈ 9 µM) (AB5075, read-out: Base MIC) and 64 µg/mL (≈ 144 µM) (AB5075, read-out: MIC after serial passaging).

These data come from patent publication US20260272964A1, “PENTAGALLOYL GLUCOSE DERIVED FROM SCHINUS PLANTS AND METHODS OF USE” (Emory University, priority 2020, published 2026).
